# In patent publication US5493007A, “Platelet aggregation inhibitors having high specificity for GPIIBIIIA” (Genentech, Inc., priority 1994, dated 1996):
# Where a SMILES comes first, the peptide text is derived from it. Bridges are numbered along the chain shown (N, C = ends). [ ]: non-standard residue; d: D form. Pen = CC(C)(S)[C@H](N)C(=O)O
# How the values were obtained:
# [1] = tested on: platelet rich plasma (PRP); test: Rabbit ex-vivo platelet aggregation (XPA), ADP-induced; type: in vivo; details: Example 1
# Protocol: Catheters are flushed and locked after every sample.
# […] of PRP is placed in a disposable glass cuvette with a stir bar. The cuvette is placed in the temperature regulated light path of a light transmittance aggregometer (Chrono-log) and equilibrated to a 37° C. Baseline transmittance is recorded for 30 seconds, after which […] of ADP (1 mM) is added and the change in transmittance recorded. The maximum change from baseline (dT) is noted for each sample. The extent of inhibition of XPA that is produced by an inhibitor is calculated for each animal as follows: Mean dTs are calculated for the pre and post infusion values, and then, percent inhibition is calculated as (1-dt (post)/ddt (pre))×100.
# [2] = tested on: New Zealand White rabbits; test: Rabbit cutaneous bleeding time (CBT); details: for Rabbit BT Ratio: Example 1, at the % P.A. inhibition given
# Protocol: Unanesthetized male New Zealand White rabbits (2.5-3.5 kg) are placed in a standard rabbit restrainer. Ears are shaved and a 20 G Teflon catheter with flowswitch (Viggo) is placed in the medial artery, flushed with saline and locked with 1 ml of heparinized saline (10 m/ml). A 22 G catheter (Abbott) fitted with an injection cap (Medex) is placed in the marginal vein of the same ear. Saline or a GP IIb IIIa receptor antagonist, at a concentration of 1 to 3 mg/ml, is infused via the venous catheter. At time 0, 41% of the dose is given as a bolus over 2 minutes. The remainder is continuously infused over the following 60 minutes. Blood samples (3.2 ml) are collected into syringes without needles via the arterial catheter at -10, -5, 10, 45, and 60 minutes. The first 0.5 ml is discarded and the following 2.7 ml is collected directly into a syringe containing 0.3 ml of 3.8% sodium citrate. The sample is divided into 1.5 ml aliquots and centrifuged at room temperature for 5 seconds at 12,000 G. The resulting platelet rich plasma (PRP) is used to measure ex-vivo platelet aggregation (XPA). At -10 and 60 minutes an additional 1 cml sample is drawn for an automated blood count (Baker instruments). Catheters are flushed and locked after every sample.
# CBT is measured at -10, -5, 10, and 45 minutes on the opposite ear, using an automated incision-making instrument (Surgicutt®, ITD). An incision (5mm×1 mm deep) is made on the dorsal surface of the ear at sites not supplied by major blood vessels. Blood is blotted away with absorbent paper placed near the incision site, every 2 to 15 seconds, to a maximum of 15 minutes. Cessation of bleeding is defined as no blood forming at the incision site for 15 seconds. The range of duplicate CBT in 40 normal rabbits was 0.88 to 3.38 minutes.
# [3] = molecular target: T1, Vitronectin Receptor (αvβ3) (Homo sapiens, UniProt P05106+P06756); test: Human Vitronectin-Vitronectin Receptor (αvβ3) ELISA Assay; type: binding; details: purified human αvβ3, vitronectin-coated plates; read-out: ELISA IC50 Vitronectin VnR
# T1 construct: Human vitronection receptor (VnR) is purified from human placenta; from tissue; host or cells: human placenta
# Text: Human vitronectin (Vn) is isolated from human plasma and purified by affinity chromatography by the method of Yatohgo et. al., (Cell Structure and Function 13:281-292 [1988]).
# Human vitronection receptor (VnR) is purified from human placenta by the method of Pytela et al., (Methods Enzymol., 144:475 [1987]). Alternatively the αvβ3 receptor can be purified from some cell lines (e.g., human embryonic kidney 293 cells) transfected with DNA sequences for both the αv and β3 subunits. The subunits are purified by employing octylglucoside extraction followed by Con-A, Heparin-Sepharose, and S-300 Chromatography.
# Anti-GP IIb IIIa monoclonal antibodies specific for human GP IIIa are prepared by the method of Newman et al. (Blood, 65:227-232 [1985]), or a similar procedure. This mouse Mab is specific for the β3 subunit of the vitronectin receptor.
# Rabbit Fab 2 anti-mouse Fc fragment horse radish peroxidase conjugate (anti-MuFc HRP) is obtained from PelFreeze (cat. no. 715305-1).
# Maxisorp microtiter plates are coated with 2 μg/ml human vitronectin dissolved in PBS ([…]) and stored overnight at 4° C. The plates are washed two times with PBS-0.05% Tween-20 (wash buffer) and blocked by incubating with about 150 μl/well of assay buffer (1%, BSA [RIA grade or better] in 50 mM Tris-HCl, 100 mM NaCl, 1 mM MgCl2, CaCl2, MnCl2 pH 7.4) for 60 minutes. Dilutions of standards are prepared and putative inhibitors (Table 3) are dissolved in assay buffer. The blocked plates are emptied and 25 μl/well of inhibitor or standard solution is added to each well. Twenty-five μl of a 30 μg/ml solution of purified αvβ3 in assay buffer is pipetted into the coated plate. The final concentration of receptor in the assay well is about 15 μg/ml. The plate is incubated on a shaker for 60 minutes. Meanwhile, for each microtite plate, 6 ml buffer solution containing 1.5 μg/ml of mouse monoclonal antibody specific for β3 is prepared. To this solution is added μl of the secondary antibody, which is anti-mouse-Fc-HRP antibody conjugate. For example, for one plate, prepare 6 ml of a 1.5 μg/ml mouse Mab solution to which is added 1 μl of anti-mouse-Fc-HRP antibody stock, (this represents a 1:6000 dilution of the antibody - HRP conjugate). This mixture is allowed to incubate during the receptor-inhibitor incubation. The assay plates are washed 4 times with PBS-Tween and 50 μl/well of the antibody mixture is then pipetted into the plate for a 60 minute incubation. The plate is washed 4 times and the color reaction is developed with 50 μl/well of 0.67 mg/ml o-phenyldiamine in PBS containing 0.012% H2 O2. Alternatively, 16 mM citric acid, 50 mM Na2 PO4 at pH 5.0 can be used as a substrate buffer. The reaction is stopped with 50 μl/well 1M H2 SO4. The plates are read at 492-405 nm and the data analyzed by four-parameter fit.
# Fibronectin Receptor [4] = molecular target: T2, Fibronectin Receptor (Homo sapiens, UniProt P05556+P08648); test: Human Fibronectin-Fibronectin Receptor ELISA Assay; type: binding; parameters: octylglucoside (OG) extracted human placenta; from tissue; host or cells: human placenta; details: human placenta fibronectin receptor, fibronectin-coated plates; read-out: ELISA IC50 Fibronectin FnR
# Protocol: Fibronectin receptor is purified according to the procedures of Pytela et al., (Methods Enzymol. 144:475 […]). Briefly, fibronectin receptor is purified employing an Arg-Gly-Asp affinity chromatography from (100 mM) octylglucoside (OG) extracted human placenta. The OG extract is filtered over Sepharose 6B GRGDSPK column. The column is washed three times with three column volumes of Tris-buffered saline (TBS) TBS, 1 mM CaCl2, and 25 mM OG. The receptor is eluted with TBS, 20 mM EDTA, and 25 mM Octyl thioglucoside, and is stored in 1 mM CaCl2, 1 mM MgCl2, at -80° C.
# Microtiter plates are coated with 110 μl human fibronectin (at 2 μg/ml) in TBS. Plates are washed three times with TBS containing 0.05% Tween 20. Test inhibitors are then added after washing in 10 microliter aliquots. The fibronectin receptor is added in 2-fold serial dilutions with TBS containing 20 mM octyl glucoside and 2 mM MnCl2. Plates are incubated three hours at room temperature, and washed with 200 μl TBS-Tween 20 buffer. 100 μl of affinity-purffied rabbit anti-human fibronectin receptor antibody is added to the wells and the plates are incubated two hours, washed twice with TBS-Tween and once with distilled water. Affinity-purified goat anti-rabbit IgG conjugated to horseradish peroxidase (100 μl) is added to each well followed by incubation for 60 minutes at room temperature. Plates are again washed twice with TBS-Tween and distilled water. 100 μl of substrate mixture (10 mg o-phenylenediamine in 25 ml 0.1M citrate-phosphate buffer, pH 5.0 6 μ30% H2 O2) is added to the plates and allowed to develop. The development process is stopped by adding 50 μl of 4N H2 SO4 to each well and read at […].
# [5] = molecular target: human platelet rich plasma (PRP) (Homo sapiens, UniProt P05106+P08514); test: In Vitro Human Platelet Aggregation Assay; type: cell-based; details: human PRP; read-out: Human Platelet Aggregation IC50
# Protocol: Platelet aggregation assays are performed in human platelet rich plasma (PRP). Fifty milliliters of whole human blood (9 parts) is drawn on 3.6% sodium citrate (1 part) from a donor who has not taken aspirin or related medications for at least two weeks. The blood is centrifuged at 160×g for 10 minutes at 22° C. and allowed to stand for 5 minutes after which the PRP is decanted. Platelet poor plasma (PPP) is isolated from the remaining blood after centrifugation at 2000×g for 25 minutes. The platelet count of the PRP is diluted to about 300,000 platelets per microliter with PPP.
# A 225 μl aliquot of PRP plus 25 μl of either a dilution of the test inhibitor sample or a control (PBS) is incubated for 5 minutes in a Chrono-log Whole Blood Aggregometer at 25° C. An aggregating agent (collagen, 1 μg/ml; U46619, 100 ng/ml; or ADP, 17 μM) is added and the transmission is recorded.
# GP IIb IIIa [6] = molecular target: T3, GP IIb IIIa (Homo sapiens, UniProt P05106+P08514); test: GP IIb IIIa -von Willebrand factor (vWF) ELISA Assay; type: binding; parameters: GP IIb IIIa, prepared by the method of Fitzgerald et al; from tissue; details: GP IIb IIIa-coated plates, vWF; read-out: ELISA IC50 GPIIb IIIa vWF
# Protocol: Microtiter plates are coated with 1.0 μg/ml GP IIb IIIa, prepared by the method of Fitzgerald et al., (Anal. Biochem. 151:169-177 [1985]) and allowed to incubate overnight in coat buffer. The plates are then washed three times in wash buffer (0.05% Tween 20 in PBS) and 150 μl of assay buffer is added and allowed to incubate for 1-2 hours at room temperature on plate shaker. The plates are washed three times and 50 μl of 2x inhibitor in assay buffer (Assay buffer: 0.5% BSA/50 mM Tris, 100 mM NaCl, 1.0 mM CaCl2, 1.0mM MgCl2, 1.0 mM MnCl2; coat buffer is the same but without BSA) is added. Fifty μl of 4.0 μg/ml vWF (prepared as described by Ledford et al., Thrombosis and Haemostasis, 64(4): 569-575 [1990]) in assay buffer is then added and allowed to incubate for one hour at room temperature on plate-shaker. The plates are washed three times and the antibody mixture is added (1:5000 of mouse anti-vWF and 1:5000 of rabbit-anti-mouse-Fc-HRP, both commercially available) in assay buffer and incubated for 1 hour at room temperature on plate-shaker. Plates are again washed three times and 100 μl of substrate solution (10 mg OPD, 6.5 μl H2 O2, 15 ml phosphate citrate buffer) is added and incubated at room temperature. The color change of OPD/H2 O2 reagent is read at 492 nm with a 405 nm reference wavelength on the filter photometer.
# [7] = tested on: New Zealand White rabbits; test: Rabbit peripheral blood flow and CBT, laser Doppler series; type: in vivo; details: 1 mg intravenously over 2 minutes at 60 minutes, within 5 minutes, laser doppler probe
# Protocol: In an alternative series of experiments, (Table 2 ) PBF was measured quantitatively with a laser Doppler flow probe (Perimed). The probe was positioned securely over the vascular bed of one ear and flow monitored continuously. Each inhibitor was infused and CBT measured in the opposing ear. No arterial catheter was placed for blood sampling, consequently XPA was not measured in these animals.
# As a positive control, epinephrine was infused intravenously (1 mg over 2 minutes.) at 60 minutes. The resulting vasoconstriction reduced flow to near 0 flow units within 5 minutes.
# Fibronectin Receptor [8] = molecular target: T2, Fibronectin Receptor; details: Pierschbacher et al. 1987; cited from earlier work
# vitronectin receptor = vitronectin receptor (Homo sapiens, UniProt P05106+P06756); details: cited from earlier work
# GP IIb IIIa [9] = molecular target: T3, GP IIb IIIa; details: Kirchofer et al. 1990; versus αvβ3 and α5β1; cited from earlier work
# Chain of vitronectin receptor (P06756 31-889 limits assumed): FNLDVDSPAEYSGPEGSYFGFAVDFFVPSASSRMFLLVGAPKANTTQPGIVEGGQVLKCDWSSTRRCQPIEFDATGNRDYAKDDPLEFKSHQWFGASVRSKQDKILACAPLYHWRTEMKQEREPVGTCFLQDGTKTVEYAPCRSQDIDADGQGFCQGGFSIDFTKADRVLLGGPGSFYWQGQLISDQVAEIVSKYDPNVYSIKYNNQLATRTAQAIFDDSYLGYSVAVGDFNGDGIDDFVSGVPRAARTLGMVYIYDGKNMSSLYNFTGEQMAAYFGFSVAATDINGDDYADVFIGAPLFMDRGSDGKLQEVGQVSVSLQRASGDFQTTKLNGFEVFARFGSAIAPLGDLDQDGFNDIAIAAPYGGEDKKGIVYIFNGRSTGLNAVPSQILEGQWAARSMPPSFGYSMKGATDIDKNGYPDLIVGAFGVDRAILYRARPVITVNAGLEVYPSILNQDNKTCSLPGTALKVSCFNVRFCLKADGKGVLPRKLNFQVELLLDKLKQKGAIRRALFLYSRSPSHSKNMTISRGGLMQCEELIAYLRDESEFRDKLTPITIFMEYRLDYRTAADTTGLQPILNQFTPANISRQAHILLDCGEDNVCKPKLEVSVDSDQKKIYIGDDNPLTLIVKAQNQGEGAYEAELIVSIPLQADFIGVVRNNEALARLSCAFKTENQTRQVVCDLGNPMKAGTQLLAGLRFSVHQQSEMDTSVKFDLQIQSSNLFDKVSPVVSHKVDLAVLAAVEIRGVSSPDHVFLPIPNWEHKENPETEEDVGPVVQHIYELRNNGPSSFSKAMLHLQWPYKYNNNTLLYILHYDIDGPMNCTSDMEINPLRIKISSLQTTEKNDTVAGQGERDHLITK
# Chain of vitronectin receptor (P06756 891-1048 partner limits assumed): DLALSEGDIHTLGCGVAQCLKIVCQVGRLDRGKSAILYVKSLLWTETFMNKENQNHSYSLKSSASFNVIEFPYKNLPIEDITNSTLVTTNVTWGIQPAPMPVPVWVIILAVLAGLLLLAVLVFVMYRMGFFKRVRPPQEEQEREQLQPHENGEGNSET
# Chain of vitronectin receptor (P05106 27-788): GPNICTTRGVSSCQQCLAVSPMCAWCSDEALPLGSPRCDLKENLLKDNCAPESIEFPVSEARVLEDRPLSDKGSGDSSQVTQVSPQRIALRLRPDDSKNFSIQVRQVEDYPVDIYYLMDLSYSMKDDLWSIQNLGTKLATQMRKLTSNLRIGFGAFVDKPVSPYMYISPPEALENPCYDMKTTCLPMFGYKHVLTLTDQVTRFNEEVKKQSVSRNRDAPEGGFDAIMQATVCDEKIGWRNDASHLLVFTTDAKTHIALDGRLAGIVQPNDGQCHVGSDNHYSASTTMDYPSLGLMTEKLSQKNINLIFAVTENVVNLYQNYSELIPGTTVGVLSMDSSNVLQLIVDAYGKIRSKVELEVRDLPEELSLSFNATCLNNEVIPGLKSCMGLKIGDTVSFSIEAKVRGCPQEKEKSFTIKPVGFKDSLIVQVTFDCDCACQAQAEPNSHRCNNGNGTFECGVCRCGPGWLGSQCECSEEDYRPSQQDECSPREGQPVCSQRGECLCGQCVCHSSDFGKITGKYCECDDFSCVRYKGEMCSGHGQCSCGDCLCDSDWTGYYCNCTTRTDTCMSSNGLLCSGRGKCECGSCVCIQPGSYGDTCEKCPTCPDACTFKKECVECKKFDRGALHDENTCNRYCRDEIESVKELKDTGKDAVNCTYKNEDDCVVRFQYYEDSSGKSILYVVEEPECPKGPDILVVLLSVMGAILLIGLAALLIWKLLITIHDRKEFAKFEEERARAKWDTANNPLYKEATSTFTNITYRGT
# T2 sequence (P08648 42-894 limits assumed): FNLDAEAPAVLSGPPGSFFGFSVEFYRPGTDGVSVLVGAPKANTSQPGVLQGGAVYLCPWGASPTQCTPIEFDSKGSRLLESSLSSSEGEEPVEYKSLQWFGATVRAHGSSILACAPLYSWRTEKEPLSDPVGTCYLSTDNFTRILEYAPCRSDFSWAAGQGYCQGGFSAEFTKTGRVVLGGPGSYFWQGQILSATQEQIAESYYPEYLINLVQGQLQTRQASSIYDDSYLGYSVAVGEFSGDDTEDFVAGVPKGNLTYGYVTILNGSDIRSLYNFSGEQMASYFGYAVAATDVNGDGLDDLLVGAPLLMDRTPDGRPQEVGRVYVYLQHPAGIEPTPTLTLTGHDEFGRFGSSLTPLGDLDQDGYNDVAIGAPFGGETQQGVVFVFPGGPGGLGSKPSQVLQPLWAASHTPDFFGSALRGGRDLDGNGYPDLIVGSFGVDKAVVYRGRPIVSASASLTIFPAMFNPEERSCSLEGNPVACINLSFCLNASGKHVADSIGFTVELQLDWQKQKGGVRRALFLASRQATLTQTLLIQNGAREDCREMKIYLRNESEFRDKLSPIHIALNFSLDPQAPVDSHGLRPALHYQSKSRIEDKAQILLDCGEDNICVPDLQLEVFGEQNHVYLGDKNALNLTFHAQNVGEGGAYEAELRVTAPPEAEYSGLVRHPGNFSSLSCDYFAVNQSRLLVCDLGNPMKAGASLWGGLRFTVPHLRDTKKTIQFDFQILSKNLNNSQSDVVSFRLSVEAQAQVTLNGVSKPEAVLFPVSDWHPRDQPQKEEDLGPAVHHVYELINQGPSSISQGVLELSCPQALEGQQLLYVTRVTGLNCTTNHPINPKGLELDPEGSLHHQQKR
# T2 sequence (P08648 895-1049 partner limits assumed): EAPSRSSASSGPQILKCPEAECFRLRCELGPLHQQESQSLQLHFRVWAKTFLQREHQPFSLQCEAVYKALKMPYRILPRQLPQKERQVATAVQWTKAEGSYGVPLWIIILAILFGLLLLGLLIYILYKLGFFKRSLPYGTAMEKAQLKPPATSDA
# T2 sequence (P05556 21-798): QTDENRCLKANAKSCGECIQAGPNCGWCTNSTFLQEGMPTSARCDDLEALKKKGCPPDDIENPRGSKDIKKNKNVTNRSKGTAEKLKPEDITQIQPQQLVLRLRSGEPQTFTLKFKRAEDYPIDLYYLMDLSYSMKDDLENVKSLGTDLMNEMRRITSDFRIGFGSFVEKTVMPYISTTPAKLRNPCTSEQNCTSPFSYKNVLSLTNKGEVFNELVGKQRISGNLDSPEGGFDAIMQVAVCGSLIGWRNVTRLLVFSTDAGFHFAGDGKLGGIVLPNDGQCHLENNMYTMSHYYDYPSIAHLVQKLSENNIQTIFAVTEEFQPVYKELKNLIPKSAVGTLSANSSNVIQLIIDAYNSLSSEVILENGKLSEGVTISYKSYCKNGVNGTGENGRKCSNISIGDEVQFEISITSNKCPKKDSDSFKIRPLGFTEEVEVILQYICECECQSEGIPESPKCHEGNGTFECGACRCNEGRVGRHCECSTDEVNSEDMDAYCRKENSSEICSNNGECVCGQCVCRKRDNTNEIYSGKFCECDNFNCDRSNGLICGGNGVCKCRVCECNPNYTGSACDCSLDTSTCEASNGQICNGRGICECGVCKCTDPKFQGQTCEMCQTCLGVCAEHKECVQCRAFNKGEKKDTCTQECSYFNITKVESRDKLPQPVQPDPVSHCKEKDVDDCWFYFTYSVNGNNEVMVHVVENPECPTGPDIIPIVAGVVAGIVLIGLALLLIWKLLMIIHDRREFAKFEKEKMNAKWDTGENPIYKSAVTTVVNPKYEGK
# T1 sequence (P06756 31-889 limits assumed): as the sequence (P06756 31-889 limits assumed) above
# T1 sequence (P06756 891-1048 partner limits assumed): as the sequence (P06756 891-1048 partner limits assumed) above
# T1 sequence (P05106 27-788): as the sequence (P05106 27-788) above
compound,measurement,setting,value
"N=C(N)NCCC[C@H](NC(=O)[C@@H]1C[S+]([O-])CC(=O)N[C@H](Cc2ccc(O)cc2)C(=O)N[C@@H](CCCNC(=N)N)C(=O)NCC(=O)N[C@@H](CC(=O)O)C(=O)N1)C(N)=O (single isomer, unassigned) [7/32]",Rabbit % P.A. Inhibition (ex vivo),[1],99%
same,Rabbit BT Ratio,[2]; rabbit,1.17
"N=C(N)NCCC[C@@H]1NC(=O)[C@@H](Cc2ccc(O)cc2)NC(=O)C[S+]([O-])C[C@@H](C(=O)N[C@H](CCCNC(=N)N)C(N)=O)NC(=O)[C@H](CC(=O)O)NC(=O)CNC1=O (single isomer, unassigned) [7/34]",Rabbit % P.A. Inhibition (ex vivo),[1],64%
same,Rabbit BT Ratio,[2]; rabbit,0.94
"N=C(N)NCCC[C@@H]1NC(=O)[C@@H](Cc2ccc(O)c(Br)c2)NC(=O)C[S+]([O-])C[C@@H](C(=O)N[C@@H](CCCCN)C(N)=O)NC(=O)[C@H](CC(=O)O)NC(=O)CNC1=O (single isomer, unassigned) [7/36]",Rabbit % P.A. Inhibition (ex vivo),[1],91%
same,Rabbit BT Ratio,[2]; rabbit,0.77
"NCCCC[C@@H]1NC(=O)[C@@H](Cc2ccc(O)cc2)NC(=O)C(c2ccccc2)SC[C@@H](C(=O)O)NC(=O)[C@H](CC(=O)O)NC(=O)CNC1=O (single isomer, unassigned) [7/45, cyclo-S-phenylacetyl-dTyr--Lys--Gly--Asp--Cys--OH]",IC50,[3],> 20000 nM
same,IC50,Fibronectin Receptor [4],> 10000 nM
same,IC50,[5],220 nM
same,IC50,GP IIb IIIa [6],1 nM
same,Rabbit BT Ratio,[2]; rabbit,4.47
CC1(C)SCC(=O)N[C@H](Cc2ccc(O)cc2)C(=O)N[C@@H](CCCCN)C(=O)NCC(=O)N[C@@H](CC(=O)O)C(=O)N[C@@H]1C(=O)O [7/47] ({CH2CO}-[dY]KGD[Pen]-OH; thioether N-5),Rabbit % P.A. Inhibition (ex vivo),[1],96%
same,"cutaneous bleeding time, result in words",[2],prolongation of bleeding time in vivo in both the rabbit and dog model
same,Rabbit BT Ratio,[2]; rabbit,8.57
same,increase of cutaneous bleeding time compared to the undosed animal,"[2]; rabbit, dose sufficient to achieve about 97% inhibition of platelet aggregation",8.6 times
CNC[C@H](O)c1ccc(O)c(O)c1 [epinephrine],peripheral blood flow after positive control,[7],~0 flow units
Gly-Pen-Gly-Arg-Gly-Asp-Ser-Pro-Cys-Ala,"inhibition of the fibronectin-fibronectin receptor interaction, in words",Fibronectin Receptor [8],ineffective
same,"effectiveness at inhibiting the vitronectin-vitronectin receptor interaction, cyclized versus uncyclized peptide",vitronectin receptor; Pierschbacher et al. 1987,10 times
"cyclic-1,7-VRGDSPDG","integrin selectivity, in words",vitronectin receptor; Kirchofer et al. 1990,preferentially inhibited αvβ3 (vitronectin receptor) binding to vitronectin
"cyclic-2,10-GPenGHRGDLRCA","integrin selectivity, in words",GP IIb IIIa [9],preferentially inhibits the binding of GP IIb IIIa to fibrinogen
